Assays:
HT-29 = assay: Antiproliferative activity against human HT-29 cells assessed as reduction in cell growth after 48 hrs by MTT assay; format: functional, cell-based; settings: HT-29, 48 h
HEK293 = assay: Cytotoxicity against HEK293 cells assessed as reduction in cell growth after 48 hrs by MTT assay; format: cell-based; settings: Homo sapiens, HEK293, 48 h
A2780 = assay: Antiproliferative activity against paclitaxel-resistant human A2780 cells assessed as reduction in cell growth after 48 hrs by MTT assay; format: functional, cell-based; settings: A2780, 48 h
A549 [1] = assay: Antiproliferative activity against cisplatin resistant human A549 cells assessed as reduction in cell growth after 48 hrs by MTT assay; format: functional, cell-based; settings: A549, 48 h
A549 [2] = assay: Antiproliferative activity against human A549 cells assessed as reduction in cell growth after 48 hrs by MTT assay; format: functional, cell-based; settings: A549, 48 h
MCF7 = assay: Antiproliferative activity against human MCF7 cells assessed as reduction in cell growth after 48 hrs by MTT assay; format: functional, cell-based; settings: MCF7, 48 h
[3] = Inhibition of porcine brain tubulin polymerization measured for 20 mins by spectrometric assay; format: tissue-based, Sus scrofa
HeLa = assay: Antiproliferative activity against human HeLa cells assessed as reduction in cell growth after 48 hrs by MTT assay; format: functional, cell-based

Row | SMILES | IC50 (HT-29) | other results
1 | COc1cc(-c2nnc3n2N=C(Nc2ccccc2)CS3)cc(OC)c1OC | 3.25 µM | –
2 | COc1cc(-c2nnc3n2N=C(C)CS3)cc(OC)c1OC | 15.8 µM | –
3 | COc1ccc(C2=Nn3c(nnc3-c3cc(OC)c(OC)c(OC)c3)SC2)cc1O | 9.81 µM | –
4 | COc1cc(-c2nnc3n2N=C(NCCc2ccc(F)cc2)CS3)cc(OC)c1OC | > 20 µM | –
5 | COc1cc(-c2nnc3n2N=C(Nc2cccc(F)c2)CS3)cc(OC)c1OC | > 20 µM | –
6 | COc1cc(-c2nnc3n2N=C(Nc2ccc(C)cc2)CS3)cc(OC)c1OC | > 20 µM | –
7 | COc1cc(-c2nnc3n2N=C(c2ccc(Br)cc2)CS3)cc(OC)c1OC | 5.18 µM | –
8 | COc1cc(-c2nnc3n2N=C(c2ccc(O)cc2)CS3)cc(OC)c1OC | 14.1 µM | –
9 | COc1cc(-c2nnc3n2N=C(c2ccc(-c4ccccc4)cc2)CS3)cc(OC)c1OC | 13.7 µM | –
10 | COc1cc(-c2nnc3n2N=C(c2cc4ccccc4oc2=O)CS3)cc(OC)c1OC | 10.4 µM | –
11 | COc1cc(-c2nnc3n2N=C(c2ccccc2C)CS3)cc(OC)c1OC | 16.1 µM | –
12 | COc1ccc(/C=C\c2cc(OC)c(OC)c(OC)c2)cc1O [COMBRETASTATIN A4] | – | IC50 (HEK293): 45.7 µM; IC50 (A2780): 72.8 µM; IC50 (A549 [1]): 130 µM; IC50 (A549 [2]): 0.021 µM
13 | COc1cc(-c2nnc3n2N=C(NCc2ccc(C)cc2)CS3)cc(OC)c1OC | > 20 µM | –
14 | COc1cc(-c2nnc3n2N=C(Nc2ccc(Cl)cc2)CS3)cc(OC)c1OC | 2.84 µM | –
15 | COc1cc(-c2nnc3n2N=C(c2ccc(F)c(F)c2)CS3)cc(OC)c1OC | > 20 µM | –
16 | COc1cc(-c2nnc3n2N=C(NCc2ccc(Br)cc2)CS3)cc(OC)c1OC | > 20 µM | –
17 | COc1cc(-c2nnc3n2N=C(Nc2ccc(F)cc2)CS3)cc(OC)c1OC | 8.11 µM | –
18 | COc1cccc(NC2=Nn3c(nnc3-c3cc(OC)c(OC)c(OC)c3)SC2)c1 | 12.2 µM | –
19 | COc1cc(C2=Nn3c(nnc3-c3ccc(F)cc3)SC2)cc(OC)c1OC | 19.7 µM | –
20 | COc1cc(-c2nnc3n2N=C(NCCc2ccccc2)CS3)cc(OC)c1OC | > 20 µM | –
21 | COc1cc(C2=Nn3c(nnc3-c3ccc(C)cc3)SC2)cc(OC)c1OC | > 20 µM | –
22 | COc1ccc(CCNC2=Nn3c(nnc3-c3cc(OC)c(OC)c(OC)c3)SC2)cc1 | > 20 µM | –
23 | COc1cc(-c2nnc3n2N=C(Nc2ccccc2F)CS3)cc(OC)c1OC | 2.9 µM | –
24 | COc1cc(-c2nnc3n2N=C(C2CC2)CS3)cc(OC)c1OC | > 20 µM | –
25 | CCC1=Nn2c(nnc2-c2cc(OC)c(OC)c(OC)c2)SC1 | 15.4 µM | –
26 | COc1cc(-c2nnc3n2N=C(c2ccc(C(F)(F)F)cc2)CS3)cc(OC)c1OC | 0.29 µM | IC50 (HEK293): > 100 µM; IC50 (A2780): 86.5 µM; IC50 (A549 [1]): > 200 µM; IC50 (A549 [2]): 0.286 µM; IC50 (MCF7): 0.241 µM; IC50 [3]: 4.82 µM; IC50 (HeLa): 0.019 µM
27 | COc1cc(-c2nnc3n2N=C(c2cccc(C)c2)CS3)cc(OC)c1OC | 13.6 µM | –

Row | SMILES | IC50 (HT-29) | other results
28 | COc1cc(-c2nnc(SCC(=O)c3ccc(C)cc3F)n2N)cc(OC)c1OC | 0.131 µM | IC50 (A549 [2]): > 100 µM; IC50 (MCF7): > 100 µM; IC50 (HeLa): 0.04 µM
29 | COc1cc(-c2nnc3n2N=C(NCc2ccccc2)CS3)cc(OC)c1OC | > 20 µM | –
30 | COc1cc(-c2nnc3n2N=C(Nc2c(Cl)cccc2Cl)CS3)cc(OC)c1OC | > 20 µM | –
31 | COc1cc(-c2nnc3n2N=C(Nc2ccc(N4CCOCC4)cc2)CS3)cc(OC)c1OC | > 20 µM | –
32 | COc1ccc(-c2nnc3n2N=C(c2cc(OC)c(OC)c(OC)c2)CS3)cc1 | > 20 µM | –
33 | COc1cc(-c2nnc3n2N=C(Nc2ccccc2C)CS3)cc(OC)c1OC | > 20 µM | –
34 | COc1cc(-c2nnc3n2N=C(c2cccc(Br)c2)CS3)cc(OC)c1OC | 15.4 µM | –
35 | COc1ccc(-c2nnc3n2N=C(c2cc(OC)c(OC)c(OC)c2)CS3)cc1O | 9.86 µM | –
36 | COc1cc(-c2nnc3n2N=C(Nc2ccc(Br)cc2)CS3)cc(OC)c1OC | 18.6 µM | –
37 | COc1cc(-c2nnc3n2N=C(c2ccc([N+](=O)[O-])cc2)CS3)cc(OC)c1OC | > 20 µM | –
38 | COc1cc(-c2nnc3n2N=C(c2ccccc2)CS3)cc(OC)c1OC | 5.65 µM | –
39 | COc1cc(-c2nnc3n2N=C(c2cccs2)CS3)cc(OC)c1OC | 4.25 µM | –
40 | COc1cc(-c2nnc3n2N=C(NCc2ccc(Cl)cc2)CS3)cc(OC)c1OC | > 20 µM | –
41 | COc1cc(-c2nnc3n2N=C(NCCc2ccc(C)cc2)CS3)cc(OC)c1OC | > 20 µM | –
42 | COc1cc(C2=Nn3c(nnc3-c3cc(OC)c(OC)c(OC)c3)SC2)cc(OC)c1OC | 19.9 µM | –
43 | COc1cc(-c2nnc3n2N=C(c2ccc(F)cc2)CS3)cc(OC)c1OC | 8.32 µM | –
44 | COc1cc(NC2=Nn3c(nnc3-c3cc(OC)c(OC)c(OC)c3)SC2)cc(OC)c1OC | > 20 µM | –
45 | COc1ccc(C2=Nn3c(nnc3-c3cc(OC)c(OC)c(OC)c3)SC2)cc1 | 0.18 µM | IC50 (HEK293): > 100 µM; IC50 (A2780): 62.2 µM; IC50 (A549 [1]): 67.2 µM; IC50 (A549 [2]): 0.077 µM; IC50 (MCF7): 0.205 µM; IC50 [3]: 2.39 µM; IC50 (HeLa): 0.018 µM
46 | COc1cc(-c2nnc3n2N=C(Nc2ccc(S(C)(=O)=O)cc2)CS3)cc(OC)c1OC | > 20 µM | –
47 | COc1cc(-c2nnc3n2N=C(c2ccco2)CS3)cc(OC)c1OC | 10.8 µM | –
48 | COc1cc(-c2nnc3n2N=C(c2cccc4ccccc24)CS3)cc(OC)c1OC | 6.02 µM | –
49 | COc1cc(-c2nnc3n2N=C(NCCc2ccc(Cl)cc2)CS3)cc(OC)c1OC | > 20 µM | –
50 | COc1ccc(-c2nnc3n2N=C(c2cc(OC)c(OC)c(OC)c2)CS3)cc1OC | > 20 µM | –
51 | COc1ccc(NC2=Nn3c(nnc3-c3cc(OC)c(OC)c(OC)c3)SC2)cc1 | > 20 µM | –
52 | COc1cc(C2=Nn3c(nnc3-c3ccc(Cl)cc3)SC2)cc(OC)c1OC | > 20 µM | –
53 | COc1cccc(C2=Nn3c(nnc3-c3cc(OC)c(OC)c(OC)c3)SC2)c1 | 5.94 µM | –

Source: ChEMBL document CHEMBL4706609, “Development of triazolothiadiazine derivatives as highly potent tubulin polymerization inhibitors: Structure-activity relationship, in vitro and in vivo study” (Eur J Med Chem, 2020)
